# Test results published in patent US12071624B2, “Antisense oligonucleotide targeting ARL4C molecule, and nucleic acid drug using antisense oligonucleotide” (OSAKA UNIVERSITY, priority 2018, dated 2024).
# Tested on: A549/Luc cells
# Assay: Xenograft orthotopic transplantation model using lung cancer cells
# Format: in vivo, mouse
# Procedure: Eight-week-old male nude mice (BALB/cAJcl-nu/nu, CLEA Japan, Inc.) were intraperitoneally injected with medetomidine (0.75 mg/kg), midazolam (4 mg/kg), and butorphanol (5 mg/kg) so as to be anesthetized. The xenograft orthotopic transplantation model was formed by transplanting human lung cancer cells into the left lungs of mice in the following order. A549/Luc cells (approximately 2×10^6 cells) were suspended in 10 μl of PBS (phosphate buffered saline) and 10 μl of Matrigel (BD Biosciences, San Jose, CA, USA), and a 29 G needle attached to a 0.5 ml insulin syringe (BD Biosciences, San Jose, CA, USA) was used to inject the same through the intercostal space to a depth of 2 mm in the left lung. The incision in the skin was closed with a 5-0 polypropylene suture, and the mice were rested on a warm carpet until they were fully recovered.
# One week after the tumor transplantation, tumor establishment was confirmed using an IVIS imaging system (Xenogen Corp., Alameda, CA, USA). In the in-vivo imaging, 100 μl of VivoGlo luciferin (30 mg/ml) was administered via the tail vein, and bioluminescence imaging was recorded 5 minutes after the administration. Mice with established tumors were then divided into two groups, a control ASO inhalation group (n=7) and an ARL4C ASO inhalation group (n=9) in such a manner that the groups had identical IVIS signal intensities. […] When 21 days elapsed after the tumor transplantation, tumor sizes were determined using the IVIS imaging system, and then the mice were euthanized for histological analysis. […]
# In an experiment in a xenograft orthotopic transplantation model using lung cancer cells, A549/Luc cells were transplanted into the left lung (day 0), and transbronchial administration of control ASO and ARL4C ASO-1316 was carried out when 7, 11 and 15 days had elapsed after the transplantation. […] In addition, when 7 and 21 days had elapsed since the transplantation, luminescence intensities of luciferase emitted from tumors in the left lungs in the mice were measured using software of IVIS/Kodak; the results are shown in the right part of (a) of FIG. 11. […]
substance,measurement,setting,value
"ASO-1316: 15-mer AmNA/phosphorothioate ASO targeting ARL4C, base sequence SEQ ID NO: 1 gcatacctcaggtaa; Table 1 SEQ ID NO 13 (antisense GCATACCTCAGGTAA; AmNA and phosphorothioate modified, pattern not given here)",proliferation of A549/Luc cells in left lung (luciferase luminescence intensity),"200 μg/body transbronchially on days 7, 11 and 15, days 7 and 21",inhibited A549/Luc cells from proliferating
same,Ki-67-positive cells in left lung tumor,day 21,Ki-67-positive cells decreased in number
same,expression of ARL4C in left lung tumor (immunostaining),day 21,decreased expression of ARL4C
